Experimental data as given in patent US20160220569A1, “CDK4/6 Inhibitor Dosage Formulations For The Protection Of Hematopoietic Stem And Progenitor Cells During Chemotherapy” (G1 Therapeutics, Inc., priority 2015, published 2016).
“And” between values parts separate entries of the source, which are not always exact repeats. Equal entries are not always repeated. Where two headings read alike, the source gives them in different places.

Assay: Topotecan PK following Compound 1 infusion
Assay type: in vivo, human
Method: Blood samples were obtained prior to dosing, at the end of the 30-minute infusion (EOI), and at 0.5, 1, 1.5, 2, 2.5, 4, 6, 8, and 24 hours after the end of infusion. Analysis of plasma concentration versus time data for calculation of standard pharmacokinetic (PK) parameters following intravenous infusion administration was conducted using Phoenix WinNonlin version 6.3 using a nominal infusion duration and scheduled blood sampling times. In Cohort 2 there were 3 subjects who received 1.25 mg/m^2 of topotecan once daily on Days 1 to 5. In Cohort 3 there were 4 subjects who received 0.75 mg/m^2 of topotecan once daily on Days 1 to 5.

[1] = Topotecan 0.75 mg/m^2 (Cohort 3) with Compound 1 200 mg/m^2, Day 1, Max
[2] = Topotecan 0.75 mg/m^2 (Cohort 3) with Compound 1 200 mg/m^2, Day 1, Min
[3] = Topotecan 0.75 mg/m^2 (Cohort 3) with Compound 1 200 mg/m^2, Day 1, individual subjects, monohydrochloride
[4] = Topotecan 0.75 mg/m^2 (Cohort 3) with Compound 1 200 mg/m^2, Day 4, Max
[5] = Topotecan 0.75 mg/m^2 (Cohort 3) with Compound 1 200 mg/m^2, Day 4, Min
[6] = Topotecan 0.75 mg/m^2 (Cohort 3) with Compound 1 200 mg/m^2, Day 4, individual subjects, monohydrochloride
[7] = Topotecan 1.25 mg/m^2 (Cohort 2) with Compound 1 200 mg/m^2, Day 1, Max
[8] = Topotecan 1.25 mg/m^2 (Cohort 2) with Compound 1 200 mg/m^2, Day 1, Min
[9] = Topotecan 1.25 mg/m^2 (Cohort 2) with Compound 1 200 mg/m^2, Day 1, individual subjects, monohydrochloride
[10] = Topotecan 1.25 mg/m^2 (Cohort 2) with Compound 1 200 mg/m^2, Day 4, Max
[11] = Topotecan 1.25 mg/m^2 (Cohort 2) with Compound 1 200 mg/m^2, Day 4, Min
[12] = Topotecan 1.25 mg/m^2 (Cohort 2) with Compound 1 200 mg/m^2, Day 4, individual subjects, monohydrochloride
[13] = Topotecan […]^2 (Cohort 1) with Compound 1 200 mg/m^2, Day 1, Max
[14] = Topotecan […]^2 (Cohort 1) with Compound 1 200 mg/m^2, Day 1, Min
[15] = Topotecan […]^2 (Cohort 1) with Compound 1 200 mg/m^2, Day 1, individual subjects, monohydrochloride
[16] = Topotecan […]^2 (Cohort 1) with Compound 1 200 mg/m^2, Day 4, Max
[17] = Topotecan […]^2 (Cohort 1) with Compound 1 200 mg/m^2, Day 4, Min

## CC[C@@]1(O)C(=O)OCc2c1cc1n(c2=O)Cc2cc3c(CN(C)C)c(O)ccc3nc2-1.Cl [topotecan, (S)-10-[(dimethylamino)methyl]-4-ethyl-4,9-dihydroxy-1H-pyrano[3′,4′:6,7]indolizino[1,2-b]quinoline-3,14(4H,12H)-dione monohydrochloride]
[1]
  AUC24.5: 118 ng·h/mL
  AUCx5: 78600 nM·min
  Cmax: 38.5 ng/mL
  t½: 4.70 h
Topotecan 0.75 mg/m^2 (Cohort 3) with Compound 1 200 mg/m^2, Day 1, Max, monohydrochloride
  AUCinf: 120 h*ng/mL and 15700 min*nM
[2]
  AUC24.5: 75.0 ng·h/mL
  AUCx5: 49700 nM·min
  Cmax: 17.9 ng/mL
  t½: 4.04 h
Topotecan 0.75 mg/m^2 (Cohort 3) with Compound 1 200 mg/m^2, Day 1, Min, monohydrochloride
  AUCinf: 75.9 h*ng/mL and 9950 min*nM
[3]
  AUC24.5: 75.0 ng·h/mL and 118 ng·h/mL and 94.7 ng·h/mL
  AUCinf: 75.9 h*ng/mL and 9950 min*nM and 120 h*ng/mL and 15700 min*nM and 96.8 h*ng/mL and 12700 min*nM
  AUCx5: 49700 nM·min and 78600 nM·min and 63400 nM·min
  Cmax: 20.8 ng/mL and 17.9 ng/mL and 38.5 ng/mL and 32.0 ng/mL
  t½: 4.04 h and 4.27 h and 4.70 h
[4]
  Cmax: 30.7 ng/mL
  t½: 5.07 h
Topotecan 0.75 mg/m^2 (Cohort 3) with Compound 1 200 mg/m^2, Day 4, Max, monohydrochloride
  AUCτ: 112 h*ng/mL and 14700 min*nM
[5]
  Cmax: 18.4 ng/mL
  t½: 4.63 h
Topotecan 0.75 mg/m^2 (Cohort 3) with Compound 1 200 mg/m^2, Day 4, Min, monohydrochloride
  AUCτ: 74.4 h*ng/mL and 9740 min*nM
[6]
  AUCτ: 74.4 h*ng/mL and 9740 min*nM and 99.7 h*ng/mL and 13100 min*nM and 112 h*ng/mL and 14700 min*nM
  Cmax: 18.4 ng/mL and 30.7 ng/mL and 22.6 ng/mL
  t½: 5.07 h and 4.68 h and 4.73 h
[7]
  AUC24.5: 247 ng·h/mL
  AUCx5: 166000 nM·min
  Cmax: 94.1 ng/mL
  t½: 5.09 h
Topotecan 1.25 mg/m^2 (Cohort 2) with Compound 1 200 mg/m^2, Day 1, Max, monohydrochloride
  AUCinf: 254 h*ng/mL and 33300 min*nM
[8]
  AUC24.5: 120 ng·h/mL
  AUCx5: 80400 nM·min
  Cmax: 39.3 ng/mL
  t½: 4.78 h
Topotecan 1.25 mg/m^2 (Cohort 2) with Compound 1 200 mg/m^2, Day 1, Min, monohydrochloride
  AUCinf: 123 h*ng/mL and 16100 min*nM
[9]
  AUC24.5: 247 ng·h/mL and 120 ng·h/mL
  AUCx5: 106000 nM·min and 166000 nM·min and 80400 nM·min
  Cmax: 94.1 ng/mL and 39.3 ng/mL
  t½: 5.09 h and 4.92 h
[10]
  Cmax: 104 ng/mL
  t½: 5.97 h
Topotecan 1.25 mg/m^2 (Cohort 2) with Compound 1 200 mg/m^2, Day 4, Max, monohydrochloride
  AUCτ: 231 h*ng/mL and 30300 min*nM
[11]
  Cmax: 33.1 ng/mL
  t½: 4.98 h
Topotecan 1.25 mg/m^2 (Cohort 2) with Compound 1 200 mg/m^2, Day 4, Min, monohydrochloride
  AUCτ: 124 h*ng/mL and 16300 min*nM
[12]
  AUCτ: 231 h*ng/mL and 30300 min*nM and 124 h*ng/mL and 16300 min*nM
  Cmax: 104 ng/mL and 33.1 ng/mL
  t½: 5.97 h and 4.98 h
[13]
  AUC24.5: 169 ng·h/mL
  AUCx5: 112000 nM·min
  Cmax: 98.8 ng/mL
  t½: 4.56 h
[14]
  AUCx5: 86600 nM·min
  Cmax: 40.2 ng/mL
  t½: 4.11 h
Topotecan […]^2 (Cohort 1) with Compound 1 200 mg/m^2, Day 1, Min, monohydrochloride
  AUCinf: 17300 nM·min
[15]
  AUC24.5: 169 ng·h/mL
  AUCx5: 112000 nM·min
  t½: 4.11 h
[16]
  Cmax: 122 ng/mL
  t½: 5.11 h
[17]
  Cmax: 56.5 ng/mL
  t½: 4.64 h
Topotecan […]^2 (Cohort 1) with Compound 1 200 mg/m^2, Day 4, Min, monohydrochloride
  AUCτ: 18800 nM·min
Topotecan […]^2 (Cohort 1) with Compound 1 200 mg/m^2, Day 4, individual subjects, monohydrochloride
  t½: 4.64 h
human, plasma, intravenous, Topotecan 0.75 mg/m^2 (Cohort 3) with Compound 1 200 mg/m^2, Day 1, Mean, read-out: AUC24.5
  AUC: 92.8 ng·h/mL
human, plasma, intravenous, Topotecan 0.75 mg/m^2 (Cohort 3) with Compound 1 200 mg/m^2, Day 1, Mean, read-out: AUCinf (converted)
  AUC(0-inf): 94.4 ng·h/mL and 0.207 µM·h
human, plasma, intravenous, Topotecan 0.75 mg/m^2 (Cohort 3) with Compound 1 200 mg/m^2, Day 1, Mean, read-out: AUCx5 (converted)
  AUC: 1.03 µM·h
